{
  "source": "patent US20110288036A1",
  "about": "“Methods for Treating or Preventing Vascular Graft Failure” (priority 2010, published 2011)",
  "key": {"[1]": {"target": "T1, MKK6 (Homo sapiens, UniProt P52564)", "T1 construct": "purchased Millipore (KinaseProfiler service)", "T1 sequence (P52564 whole entry, species assumed)": "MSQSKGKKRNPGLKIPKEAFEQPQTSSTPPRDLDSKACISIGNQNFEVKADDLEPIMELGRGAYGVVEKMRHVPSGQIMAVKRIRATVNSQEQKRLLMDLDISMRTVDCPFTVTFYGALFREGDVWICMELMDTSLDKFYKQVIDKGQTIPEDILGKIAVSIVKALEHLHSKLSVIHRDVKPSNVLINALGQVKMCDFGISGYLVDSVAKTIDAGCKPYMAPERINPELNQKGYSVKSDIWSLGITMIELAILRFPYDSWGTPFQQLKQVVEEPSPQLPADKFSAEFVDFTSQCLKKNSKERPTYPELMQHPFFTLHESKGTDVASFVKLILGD", "experiment": "MKK6 radiometric kinase assay", "type": "biochemical", "conditions": "peptide 100 μM", "from_the_text": "A commercial radiometric assay service was used to test the specificity and potency of MMI-0100 ([…]; SEQ ID NO: 1) by measuring its half maximal inhibitory concentrations (IC50). This quantitative assay measures how much MK2 inhibitor (MMI-0100; […] (SEQ ID NO: 1)) is needed to inhibit 50% of a given biological process or component of a process (i.e., an enzyme, cell, or cell receptor). Specifically, in these assays, a positively charged substrate is phosphorylated with a radiolabeled phosphate group from an ATP if the kinase is not inhibited by an inhibitor peptide. The positively charged substrate then is attracted to a negatively charged filter membrane, quantified with a scintillation counter, and compared to a 100% activity control. ATP concentrations within 15 μM of the apparent Km for ATP were chosen since an ATP concentration near the Km may allow for the kinases to have the same relative amount of phosphorylation activity. The individual conditions for each radiometric assay are as follows.\nThe reaction was initiated by adding the MgATP. After incubation for 40 minutes at room temperature, 5 μl of the incubation mix was used to initiate the p38MAPK radiometric assay described above.\nIC50 values for inhibitor peptides were determined using Millipore's IC50 Profiler Express service. The IC50 value was estimated from a 10-point curve of one-half log dilutions. […]"}, "[2]": {"system": "immortalized human pleural mesothelial cells (ATCC CRL-9444)", "experiment": "IL-6 ELISA in TNF-α-stimulated mesothelial cells", "type": "cell-based", "description": "Expression of inflammatory cytokines was induced by applying 1 or 10 ng/ml of TNF-α to cultured mesothelial cells. Briefly, immortalized human pleural mesothelial cells (ATCC CRL-9444) were grown in Medium199 with Earle's BSS, 0.75 mM L-glutamine (Mediatech Inc., Manassas, Va.), 1.25 g/l sodium bicarbonate (Sigma), 3.3 nM epidermal growth factor (EGF) (MBL International, Woburn, Mass.), 40 nM hydrocortisone (Sigma), 870 nM insulin (MBL International), 20 mM HEPES (Sigma), trace elements mixture B (Mediatech Inc., Waltham, Mass.), 10% fetal bovine serum (FBS) (Hyclone), and 1% penicillin/streptomycin (Mediatech Inc., Waltham, Mass.). […] Human mesothelial cells were treated with two different concentrations (1 and 10 ng/mL) of TNF-α for 2, 6, 12, and 24 hours (data not shown). […] Without TNF-α stimulation, mesothelial cells made negligible amounts of IL-6. […] In subsequent experiments designed to determine whether the MMI-0100 peptide ([…]; SEQ ID NO: 1) could reduce TNF-α induced IL-6 expression, both 1 and 10 ng/mL of TNF-α were selected as stimuli. 10 ng/mL of TNF-α is regarded as more physiologically relevant for mesothelial cells.\nPrior to cytokine and/or inhibitor treatment, cells were allowed to acclimate in serum-free media consisting of only Medium199 with Earle's BSS, 0.75 mM L-glutamine, 1.25 g/l sodium bicarbonate, 20 mM HEPES, trace elements mixture B (Mediatech Inc., Waltham, Mass.), and 1% penicillin/streptomycin (Mediatech Inc., Waltham, Mass.) for 24 hours. […] Average concentration of IL-6 (pg/ml per 10^5 cells) at each time was determined by cytokine-specific ELISA."}, "[3]": {"system": "mouse lung endothelial cells (MLEC)", "experiment": "Murine endothelial cell proliferation by direct cell counting", "type": "cell-based", "conditions": "physiological doses", "from_the_text": "Primary cultures of mouse lung endothelial cells (MLEC) were isolated as previously described (Ackah, E. et al., J. Clin Invest., 2005, 115(8): 2119-27; Muto, A. et al., J. Exp. Med., 2011, 208(3): 561-575). Mouse lung endothelial cells (MLECs) were isolated from 3-week-old wild type mice. Briefly, mice were euthanized with an overdose of ketamine/xylazine and the lungs excised, minced, and digested with 0.1% collagenase in RPMI medium. The digest was homogenized by passing multiple times through a 14-gauge needle, filtered through a 150-μm tissue sieve, and the cell suspension was plated on 0.1% gelatin-coated dishes. Endothelial cells were then isolated by immunoselection with PECAM-1- and ICAM-2-conjugated magnetic beads. After immunoselection with magnetic beads, endothelial cells were immortalized with polyoma middle T-antigen. Isolated MLEC were maintained with EBM-2/EGM-2 MV SingleQuot® Kit Supplement & Growth Factors (Lonza) containing 15% fetal bovine serum. Cell proliferation in MLEC was measured at 24 and 72 hours after MMI-0100 treatment by direct cell counting after trypsin treatment."}, "[4]": {"system": "mouse lung endothelial cells (MLEC)", "experiment": "Murine endothelial cell apoptosis, annexin V flow cytometry", "type": "cell-based", "conditions": "24 hours; any dose", "description": "The apoptotic effect of MMI-0100 ([…]; SEQ ID NO: 1) on mouse lung endothelial cells (MLEC) was measured at 24 hours after MMI-0100 ([…]; SEQ ID NO: 1) treatment. MLEC were removed from the tissue culture plate by trypsin, and re-suspended at a concentration of 1.0×10^6 cells/ml. Apoptotic cells were detected by AlexaFluor® 488 annexin V/Dead Cell Apoptosis Kit (Invitrogen) using flow cytometry sorting analysis."}},
  "data": [
    {"sequence": "YARAAARQARAKALARQLGVAA [MMI-0100]", "values": [
      {"measurement": "Percent Activity, MKK6", "setting": "[1]", "value": 50, "unit": "%"},
      {"measurement": "IL-6 expression", "setting": "[2]; TNF-α 1 ng/mL, MMI-0100 1000 or 3000 μM, 6, 12, 24 hours", "value": "reduced IL-6 expression to the levels at or below the untreated baseline"},
      {"measurement": "IL-6 expression", "setting": "[2]; TNF-α 10 ng/mL, 3000 μM, every time point", "value": "reduced IL-6 expression to the levels of the untreated baseline"},
      {"measurement": "IL-6 expression", "setting": "[2]; TNF-α 10 ng/mL, 6, 12, 24 hours", "value": "still effective in reducing IL-6 expression triggered by TNF-α"},
      {"measurement": "murine EC proliferation", "setting": "[3]", "value": "did not induce significant murine EC proliferation"},
      {"measurement": "EC apoptosis", "setting": "[4]", "value": "did not induce EC apoptosis at any dose"}
    ]}
  ]
}
